Source: patent US6833358B1, “Lacrimal secretion promoters or eye drops for treating keratoconjunctival failure containing as the active ingredient natriuretic peptides” (Santen Pharmaceutical Co., Ltd., priority 1998, dated 2004)
No end group written: not given here.

Test system: Male Japanese white rabbits
Assay: Schirmer test paper method: amount of lacrimal fluid after instillation
Type: in vivo, rabbit
Description: The Schirmer test paper method, which is used for measurement of an amount of a human lacrimal fluid, is one method of measuring a change in an amount of a lacrimal fluid of a normal animal in instilling a drug. In the present invention, an amount of a lacrimal fluid in instilling the natriuretic peptide was measured by using the Schirmer test paper method, and an effect of the natriuretic peptide on a rate of lacrimal secretion was studied.
Male Japanese white rabbits, body weight; 1.8 to 2.2 kg, were used for the experiment.
The natriuretic peptide (0.56 mg) was dissolved in sterile purified water to prepare a 0.1% solution just before using. This solution is referred to as a solution of a test drug.
The solution of the test drug (50 μl) was instilled into a left eye once. […]
Amounts of the lacrimal fluid were measured using Schirmer test paper with respect to the eye to which the drug was administered and the eye to which no drug was administered before administering the drug and after a prescribed period of time from the instillation. […] One minute later, length of a wet portion (Schirmer value, mm) of the test paper was measured from the fold. […]
The action of the solution of the test drug on the rate of the lacrimal secretion at a time of T hours after the instillation is represented by the increment of the lacrimal fluid (mm) determined by the following equation. […]

Human CNP-22: C-type natriuretic peptide (human) consisting of 22 amino acids; purchased from Peptide Research Institute (GLSKGCFGLKLDRIGSMSGLGC; ends and bridges not checked; cysteine pairing not given here; UniProt P23582 105-126, looked up)
Increment of lacrimal fluid (mm) (one hour after administering drug, 0.1% solution, 50 μl instilled once into left eye, vehicle-corrected Schirmer value, average of six samples per group): +1.33 mm | effect of promoting the lacrimal secretion (rabbits, instillation, result in words): excellent effects of promoting the lacrimal secretion
